The subject of one series is furosine formation. The series can be described thus: Inhibition of furosine formation (non-enzymatic glycosylation of BSA with glucose, HPLC). Type of series: biochemical, bovine. The conditions noted are these: 5 mM test compound, 20 mg/ml BSA, 50 mM glucose, 50 mM phosphate buffer pH 7.3, 4 weeks at 37 °C. The procedure: Sample solutions as shown below were aseptically prepared from bovine serum albumine (No. A-8022, Sigma)(hereinafter referred to as BSA), 50 mM phosphate buffer solution (pH 7.3) and the test compounds listed in Table 1 and aminoguanidine.
The sample solutions were kept for 4 weeks at 37 °C, and the amount of furosine which was formed by non-enzymatic glycosylation was determined by HPLC according to the method of Schleicher et al. [J. Clin. Biochem., 19:81-87 (1981).] Thus, the sample solutions after reaction were dialyzed, and aliquots of 1 ml were lyophylized and then hydrolyzed by the addition of 1 ml of 6 N hydrochloric acid followed by heating at 100 °C for 20 hours. After removal of hydrochloric acid by evaporation, 1 ml of water was added to each sample, and the samples were subjected to filtration using a filter with the pore size of 0.45 µm. The filtrate was used as the sample for HPLC. ODS-120T (Tosoh Corporation) was used for the column and 7 mM phosphoric acid solution was used as the eluant. The absorbance peak whose ratio of peak area at […] was 3.9/1 was regarded as the peak corresponding to furosine.
Upon the area of the peak of furosine of each sample, the inhibition rate of furosine formation by the test compound was calculated as follows. Inhibition rate (%)=(c-d)÷(c-n)×100 [formula] c; peak area of furosine of the control sample d; peak area of furosine of the test sample n; peak area of furosine of the normal sample

The test system of series [1] is AGE formation in arterial walls. Conditions: diabetic rats, in vivo; cited from earlier work.
A further series concerns Maillard's reaction. The conditions noted are these: in vitro; cited from earlier work.
For series [2] the following is noted: patient suffering from diabetes mellitus; cited from earlier work.

On to `Nc1ccc(O)cc1C(=O)O` [AB-1, 5-hydroxyanthranilic acid], for which, in the series with furosine formation, the “Inhibition rate (%)” value was determined as 94.1%.
Still for that read-out and setting: then `Nc1ccc(O)c(C(=O)O)c1` [AB-4, 5-aminosalicylic acid], with 50.7%; and `Nc1c(O)cccc1C(=O)O` [AB-2, 3-hydroxyanthranilic acid], with 69.4%.
Same read-out and setting: with `Nc1cc(C(=O)O)ccc1O` [AB-7, 3-amino-4-hydroxybenzoic acid] the figure was 60.4%.
As to `N=C(N)NN` [aminoguanidine], the “AGE formation in arterial walls” value in series [1] was “suppresses AGE formation in arterial walls of diabetic rats in vivo”. The “Inhibition rate (%)” value with furosine formation worked out at 8.0%. Further, the “inhibition of Maillard's reaction” value in the series on Maillard's reaction is on record as “inhibits Maillard's reaction in vitro”.
Consider `Nc1cccc(C(=O)O)c1O` [AB-6, 3-aminosalicylic acid], for which the “Inhibition rate (%)” value in the series on furosine formation is listed as 53.4%.
In the case of `Nc1cc([N+](=O)[O-])ccc1C(=O)O` [AB-3, 4-nitroanthranilic acid], the “Inhibition rate (%)” value in the series on furosine formation was found to be 47.6%.
For `Nc1ccc(C(=O)O)c(O)c1` [AB-5, 4-aminosalicylic acid], in the series with furosine formation, the “Inhibition rate (%)” value came out at 70.0%. Also, the “adverse effect upon treatment” value in series [2] is “developed hypoglycaemic coma”.

The values above are taken from patent EP0474874B1, “Maillard Reaction inhibitor compositions” (Senju Pharmaceutical Co., Ltd., priority 1990, dated 1991).
